US11274332B2, “Methods of administering 3,4-diaminopyridine” (SERB SA, priority 2011, dated 2022)

Columns and labels:
[1] = Rat PK study, IV and oral TID amifampridine phosphate (Example 4); assay type: in vivo; conditions: rat, after amifampridine phosphate
Protocol: The objective of this study was to determine the absolute bioavailability of amifampridine phosphate and the pharmacokinetics of amifampridine and its 3-N-acetyl metabolite upon single-dose IV and single-day oral dose (TID) administration.
Amifampridine phosphate was administered by IV bolus at 0.8 mg/kg (in saline) to 6 rats/sex and by oral gavage (in water) TID (approximately 6 hours apart) at dose levels of 2, 8, and 25 mg/kg/dose (equivalent to 6, 24, and 75 mg/kg/day) to 12 rats/sex/group, with oral Dose 1 given to fasted rats and Dose 2 and 3 with food ad libitum. For IV bolus dose and oral Dose 1 (dose administration No. 1), blood samples were collected from three animals/sex/timepoint at predose and 0.083 (IV only), 0.17, 0.25, 0.33, 0.5, 0.75, 1, 1.25 (IV only), 1.5, 2, 2.5, 3, and 6 hours post-dose; 0.17, 0.5, and 6 hours following the second oral dose (dose administration No. 2); and 0.17, 0.25, 0.33, 0.5, 0.75, 1, 1.5, 2, 3, 4, 6, 8, and 10 hours following the third oral dose (dose administration No. 3). The second and third oral doses were given at 6 and 12 hours, respectively, after the first dose. LC-MS/MS was used to quantify amifampridine, 3-N-acetyl and 4-N-acetyl amifampridine metabolites in rat plasma samples. […] Noncompartmental analysis was applied to the mean plasma amifampridine and 3-N-acetyl metabolite concentration data for male and female rats. […]

hKv1.7 = target: T1, hKv1.7 (Homo sapiens, UniProt Q96RP8); assay: Whole cell patch clamp inhibition of hKv1.7 current in transiently transfected CHO cells (Example 5); assay type: cell-based; conditions: 10,000 μM in HB-PS
T1 construct: expressed in transfected cells; host or cells: CHO cells (transient transfection)
T1 sequence (Q96RP8 whole entry): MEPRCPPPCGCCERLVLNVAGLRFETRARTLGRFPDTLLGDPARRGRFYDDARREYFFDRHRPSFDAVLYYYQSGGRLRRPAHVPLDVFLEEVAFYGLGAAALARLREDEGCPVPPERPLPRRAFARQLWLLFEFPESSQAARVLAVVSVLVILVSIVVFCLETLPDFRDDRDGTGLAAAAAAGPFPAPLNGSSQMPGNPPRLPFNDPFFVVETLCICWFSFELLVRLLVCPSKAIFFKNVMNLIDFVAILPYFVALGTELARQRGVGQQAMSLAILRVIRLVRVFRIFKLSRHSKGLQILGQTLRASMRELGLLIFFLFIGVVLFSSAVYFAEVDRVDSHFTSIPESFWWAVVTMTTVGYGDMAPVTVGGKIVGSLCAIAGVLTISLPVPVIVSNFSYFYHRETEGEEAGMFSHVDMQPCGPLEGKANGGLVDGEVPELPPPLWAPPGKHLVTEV
Protocol: Chemicals used in solution preparation were purchased from Sigma-Aldrich (St. Louis, Mo.), unless otherwise noted, and were of ACS reagent grade purity or higher. Stock solutions of each test article (100.104 mM and 1.00 mM 3,4-DAP phosphate and 100.023 mM and 336.335 mM N-(4-aminopyridin-3-yl) acetamide HCl) were prepared in sterile water, stored refrigerated and used within one day. […] All test article solutions contained 3% sterile water. The test articles were prepared in sufficient volume to run the assay (typically 50 mL).
CHO cells, transiently transfected with hKv1.7, were cryopreserved in 90% FBS and 10% DMSO. Frozen vials of cells were thawed rapidly in a 37° C. water bath. Cells were transferred to a 15 mL conical tube, 10 mL of growth media (Ham's/F12-PS/10% FBS) was added, the suspension was gently mixed and the tube was centrifuged at approximately 250×g for 5 min. The medium was removed, the cell pellet was resuspended in 20 mL of medium, and cells were triturated to disperse cell clumps. For electrophysiology use, 2 mL of the cell suspension was plated in each 35 mm cell culture dish. Recording began 2-3 hours after plating once the cells settled out of the media and adhered to the bottom of the culture dish. […]
Cells were transferred to the recording chamber and superfused with vehicle control solution. […] Onset and steady state inhibition of hKv1.7 current due to the test article was measured using a pulse pattern with fixed amplitudes (depolarization: +10 mV amplitude, 300 ms duration) repeated at 10-second intervals from a holding potential of −80 mV. Current amplitude was measured at the end of the step to +10 mV. Current was monitored until a new steady state was achieved. […] The IC50 for sustained current was calculated for 3,4-DAP phosphate salt.
For 3,4-DAP phosphate salt, the concentration-response relationship was evaluated at seven concentrations (1, 10, 30, 100, 300, 1000 and 3000 μM) and for N-(4-aminopyridin-3-yl) acetamide HCl salt, the concentration-response relationship was evaluated at three concentrations (100, 1000 and 3000 μM).

Cmax in plasma [1] [ng/mL] | solubility in test formulation (hKv1.7) | SMILES
< 25 |  | CC(=O)Nc1ccncc1N [4-N-acetyl metabolite]
 | visible precipitate was observed | CC(=O)Nc1cnccc1N.Cl [N-(4-aminopyridin-3-yl) acetamide HCl]
